In ChEMBL document CHEMBL1128936, “Protein-ligand interactions. 6 nicotinic acetylcholine receptor agonist activity of isoquinoline alkaloids” (Bioorg Med Chem Lett, 1996):
Where “and” joins values, the source holds several entries; their conditions need not be identical. Equal entries are not always repeated.

What was measured:
[1] = target: T1, Acetylcholine receptor subunit delta (Torpedo californica) (UniProt P02718); test: Compound was tested for its binding affinity against nicotinic acetylcholine receptor by spectrometry assay; details: torpedo fuscomaculata
T1 sequence (whole entry): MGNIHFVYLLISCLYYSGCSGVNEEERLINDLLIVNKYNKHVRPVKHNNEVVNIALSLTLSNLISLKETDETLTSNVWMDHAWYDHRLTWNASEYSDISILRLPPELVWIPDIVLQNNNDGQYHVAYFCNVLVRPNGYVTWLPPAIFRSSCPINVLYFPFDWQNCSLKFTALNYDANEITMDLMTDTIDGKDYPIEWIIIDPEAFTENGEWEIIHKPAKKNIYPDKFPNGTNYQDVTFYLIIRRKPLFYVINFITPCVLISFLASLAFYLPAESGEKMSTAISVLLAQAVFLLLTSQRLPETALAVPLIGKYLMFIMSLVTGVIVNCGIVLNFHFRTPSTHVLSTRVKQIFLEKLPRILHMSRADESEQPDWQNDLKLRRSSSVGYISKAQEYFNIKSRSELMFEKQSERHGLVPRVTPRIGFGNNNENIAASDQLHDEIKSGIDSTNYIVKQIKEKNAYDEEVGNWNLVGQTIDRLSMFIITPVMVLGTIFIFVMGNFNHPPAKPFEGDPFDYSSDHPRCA

[2] = target: T1, Acetylcholine receptor subunit delta (Torpedo californica); test: Compound was tested for its binding affinity against nicotinic acetylcholine receptor by fluorimetry assay; details: torpedo fuscomaculata

SMILES | Bmax [1] | Kd1 [1] | Kd2 [1] | Bmax [2] | Kd1 [2] | Kd2 [2]
COc1ccc2cc3[n+](cc2c1OC)CCc1cc2c(cc1-3)OCO2 | 2.14 µM | 0.84 µM | 27 µM and 34 µM | 0.31 µM | 0.77 µM | –
CC(=O)OCC[N+](C)(C)C | – | 0.18 µM | 3 µM | – | 0.12 µM | 2.3 µM
COc1ccc(Cc2nccc3cc(OC)c(OC)cc23)cc1OC | 2.07 µM | 2.4 µM | 31 µM and 29 µM | 0.27 µM | 1.7 µM | –
c1ccc2cnccc2c1 | 1.86 µM | 3.3 µM | 51.6 µM | 0.31 µM | 3.1 µM | 49 µM
COc1cc2c3cc1Oc1cc(ccc1O)C[C@@H]1c4c(cc(OC)c(O)c4Oc4ccc(cc4)C[C@@H]3N(C)CC2)CC[N+]1(C)C | – | 0.03 µM | 8 µM | – | 0.05 µM | 11.4 µM
